Values after ≈ are worked out from the molar mass of the structure shown. Where two headings read alike, the source gives them in different places.
Assays:
[1] = tested on: wild-type HIV-1 strains and HIV-1 strains harboring different resistance-inducing mutations; conditions: wild-type and resistance-mutant strains; cited from earlier work
[2] = Log P (n-octanol and buffer); type: physicochemical; conditions: at pH 9.0
[3] = Solubility profile of dapivirine; type: physicochemical; conditions: for solubility: read-out: Solubility Profile (Low Solubility)
Experimental: As used herein, the term “dapivirine” refers to (4-[[4-[(2,4,6-trimethylphenyl)amino]-2-pyrimidinyl]amino]benzonitrile), a non-nucleoside reverse transcriptase inhibitor. Dapivirine is useful in the prevention and/or treatment of retroviral infection, such as HIV-1 infection. It is a crystalline compound that is white to slightly beige in color, has a melting point of about 220° C. and is virtually insoluble in water. More specifically, the solubility of dapivirine is less than 0.001 mg/gm of water (i.e., less than 1 μg/ml of water). The intravaginal rings of the instant invention may use micronized dapivirine.

Cc1cc(C)c(Nc2ccnc(Nc3ccc(C#N)cc3)n2)c(C)c1 [dapivirine, 4-[[4-[(2,4,6-trimethylphenyl)amino]-2-pyrimidinyl]amino]benzonitrile]
activity against HIV-1 strains [1]: potent activity | logP [2]: 5.27 | solubility ([3]; 0.1N HCl, simulated gastric fluid): 280 µg/mL (≈ 850 µM) | Solubility Profile (Low Solubility) ([3]; PEG 400): PEG 400 = 47.4 mg/g | Solubility Profile (Low Solubility) ([3]; Propylene Glycol): Propylene Glycol = 2.69 mg/g | solubility ([3]; water): > 1 µg/mL
